The values that follow are results of earlier work, collected in patent publication US7955624B2, “Compositions and methods for increasing adipose metabolism, lipolysis or lipolytic metabolism via thermogenesis” (HHC Formulations Ltd., priority 2006, dated 2011).

The conditions of series [1]: active treatment versus placebo.
For series [2] the following is noted: mice.
Assay in series [3]: not given
This is another data set of the same source.

For series [4] the following is noted: mice. The source holds these as a separate data set.

With `O=C(O)c1cccnc1` [Niacin, nicotinic acid], in series [1], the “high-density lipoprotein cholesterol (HDL-C)” value is recorded as “increase”, the “low-density lipoprotein cholesterol (LDL-C)” value is given as “decrease”, the total cholesterol result is listed as “decrease” and the triglyceride levels entry was “decrease”.
In the case of `Cn1c(=O)c2c(ncn2C)n(C)c1=O` [caffeine], the basal metabolic rate entry (humans) is on record as “increase the basal metabolic rate”. For the same molecule, the weight loss result (obese women, caffeine supplementation) is recorded as “Significant weight loss”.
`CN(C)CCO` [deanol, dimethylaminoethanol]: the “plasma and tissue levels of choline” value in series [2] is on record as “increase”.
Regarding `O=P(O)(O)O[C@H]1[C@H](OP(=O)(O)O)[C@@H](OP(=O)(O)O)[C@H](OP(=O)(O)O)[C@@H](OP(=O)(O)O)[C@H]1OP(=O)(O)O` [inositol hexaphosphate, Inositol hexaphosphate], the “reducing triglycerides, cholesterol and lipogenic enzymes” value in series [3] (0.02% to 10% phytic acid in a high sucrose diet) is “dose-dependent response”. In addition, in series [3] (highest dose, 10% phytic acid), the “food intake and growth” value is given as “reduction”.
For the molecule evodiamine, in the series with bovine adrenal medulla, the “secretion of adrenergic signaling molecules” value is “increase the secretion”. For the same molecule, in series [4], the body fat result is “decrease body fat”, the energy expenditure result is “increase energy expenditure” and the lipid mobilization entry is “increase”.
